Measured values: patent US7056931B2, “2-substituted 1,2,3,4-tetrahydroquinolines and derivatives thereof, compositions and methods” (Eli Lilly and Company, priority 2001, dated 2006)
pEC50, pIC50, pKi: −log10 of the molar value.

Tests used:
[1] = test system: Ishikawa human endometrial tumor cells; test: Ishikawa Alkaline Phosphatase Assay; type: cell-based; details: for pEC50 / pIC50: Homo sapiens, Ishikawa; for pEC50 / Agonist % Eff: agonist mode; for pIC50 / % Eff: antagonist mode; for pIC50: with E2 (1 nM); for Agonist % Eff: % efficacy versus the response to Tamoxifen; for % Eff: % efficacy versus E2 (1 nM) alone
Source text: Ishikawa Alkaline Phosphatase Assay
Ishikawa human endometrial tumor cells are maintained in MEM (minimum essential medium, with Earle's salts and L-Glutamine, Gibco BRL, Gaithersburg, Md.), supplemented with 10% fetal bovine serum (FBS) (V/V), (Gibco BRL). One day prior to assay, growth media is changed to assay medium, DMEM/F-12 (3:1) (Dulbecco's Modified Eagle Medium: Nutrient Mixture F-12, 3:1 Mixture, phenol red-free, Gibco BRL) supplemented with 5% dextran coated charcoal stripped fetal bovine serum (DCC-FBS) (Hyclone, Logen, Utah), L-Glutamine (2 mM), MEM sodium pyruvate (1 mM), HEPES (N-[2-hydroxyethyl]piperazine-N′-[2-ethanesulfonic acid] 2 mM) all from Gibco BRL). After an overnight incubation, ishikawa cells are rinsed with Dulbecco's
Phosphate Buffered Saline (1×) (D-PBS) without Ca^+2 and Mg^+2 (Gibco BRL), and typsinized by a 3 minute incubation with 0.25% Trypsin/EDTA, phenol red-free (Gibco BRL). Cells are resuspended in assay medium and adjusted to 250,000 cells/ml. Approximately 25,000 cells in a 100 ul media are added to flat-bottom 96 wells microculture plates (Costar 3596) and incubated at 37° C. in a 5% CO2 humidified incubator for 24 hours. The next day, serial dilutions of compounds are prepared in assay medium (at 6 times the final concentration in the assay). The assay is run in dual mode, agonist and antagonist modes. For the agonist mode, plates receive 25 μl/well of assay medium followed by 25 μl/well of diluted compounds (at 6× the final concentrations). For the antagonist mode, plates receive 25 μl/well of 6 nM E2 (β-Estradiol, Sigma, St. Louis, Mo.) followed by 25 μl/well of diluted compounds (at 6× the final concentrations). After an additional 48-hour incubation at 37° C. in a 5% CO2 humidified incubator, media is aspirated from wells and 100 μl fresh assay medium is added to each microculture. Serial dilutions of compounds are prepared and added to the cells as described above. After an additional 72 hour incubation at 37° C. in a 5% CO2 humidified incubator, the assay is quenched by removing media and rinsing plates twice in Dulbecco's Phosphate Buffered Saline (1×) (D-PBS) (Gibco BRL). The plates are dried for 5 min and frozen at −70° C. for at least 1 hour. The plates are then removed from the freezer and allowed to thaw at room temperature. To each well, 100 μl of 1-Step™ PNPP (Pierce Chemical Company, Rockford, Ill.) is added. After a 20-minute incubation, plates are read on a spectophotometer at 405 nm. The data is fitted to a linear interpolation to derive EC50 (for agonist mode) or IC50 (for antagonist mode) values. For the agonist mode, a % efficacy for each compound is calculated versus the response to Tamoxifen. For the antagonist mode, a % efficacy for each compound is calculated versus E2 (1 nM) alone.

[2] = molecular target: T1, ERbeta receptor (PanVera) (Homo sapiens, UniProt Q92731); test: ER competition binding assay (3H-Estradiol), ERbeta; details: IC50 converted to Ki by Cheng-Prusoff; 3H-Estradiol competition; A = class at 10 microMolar; read-out: Ki (ERβ)
T1 construct: purchased PanVera
T1 sequence (Q92731 whole entry): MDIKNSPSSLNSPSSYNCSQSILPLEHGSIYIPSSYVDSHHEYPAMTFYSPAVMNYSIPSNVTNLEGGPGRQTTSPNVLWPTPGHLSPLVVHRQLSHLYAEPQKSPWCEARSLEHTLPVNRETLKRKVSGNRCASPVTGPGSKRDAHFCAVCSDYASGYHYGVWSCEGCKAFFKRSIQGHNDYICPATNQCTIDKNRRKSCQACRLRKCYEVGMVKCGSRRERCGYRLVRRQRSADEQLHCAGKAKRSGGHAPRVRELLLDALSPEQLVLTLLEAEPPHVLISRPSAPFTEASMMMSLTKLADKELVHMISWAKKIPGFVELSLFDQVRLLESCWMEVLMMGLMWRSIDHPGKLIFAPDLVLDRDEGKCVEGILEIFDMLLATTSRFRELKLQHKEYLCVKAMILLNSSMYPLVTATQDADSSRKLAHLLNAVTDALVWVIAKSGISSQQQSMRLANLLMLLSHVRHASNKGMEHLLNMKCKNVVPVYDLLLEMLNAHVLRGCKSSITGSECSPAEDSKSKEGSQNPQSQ
Experimental: (§1) Competition binding assay is run in a buffer containing 50 mM Hepes, pH 7.5, 1.5 mM EDTA, 150 mM NaCl, 10% glycerol, 1 mg/ml ovalbumin and 5 mM DTT, using 0.025 μCi per well ^3H-Estradiol(NEN #NET517 at 118 Ci/mmol, 1 mCi/ml), 10 ng/well ERAlpha or ERbeta receptor (PanVera). Competing compounds are added at 10 different concentrations. Non-specific binding is determined in the presence of 1 μM of 17-B Estradiol. The binding reaction (140 μl) is incubated for 4 hours at room temperature, then 70 μl of cold DCC buffer is added to each reaction (DCC buffer contains per 50 ml of assay buffer, 0.75 g of charcoal (Sigma) and 0.25 g of dextran (Pharmacia)). Plates are mixed 8 minutes on an orbital shaker at 4° C. Plates are then centrifuged at 3,000 rpm at 4° C. for 10 minutes. An aliquot of 120 μl of the-mix is transferred to another 96-well, white flat bottom plate (Costar) and 175 μl of Wallac Optiphase “Hisafe 3” scintillation fluid is added to each well. Plates are sealed and shaken vigorously on an orbital shaker. After an incubation of 2.5 hrs, read plates in a Wallac Microbeta counter. […] The Kd for ^3H-Estradiol is determined by saturation binding to ER alpha and ER beta receptors. The IC50 values for compounds are converted to Ki using Cheng-Prusoff equation and the Kd determined by saturation binding assay.

[3] = test system: MCF-7 breast adenocarcinoma cells; test: MCF-7 Proliferation Assay; type: cell-based; details: antagonist mode, E2 10 pM, 14C-thymidine, B = class at 1 micromolar; for pIC50: Homo sapiens, MCF7
Experimental: MCF-7 Proliferation Assay
MCF-7 breast adenocarcinoma cells (ATCC HTB 22) are maintained in MEM (minimal essential medium, phenol red-free, Gibco BRL) supplemented with 10% fetal bovine serum (FBS) (VN), L-glutamine (2 mM), sodium pyruvate (1 mM), HEPES ((N-[2-hydroxyethyl]piperazine-N′-[2-ethanesulfonic acid]) 10 mM}, non-essential amino acids(0.1 mM)and Penicillin Streptomycin(1×). Seven days prior to assay, MCF-7 cells are switched to assay media which is the same as maintenance medium except supplemented with 10% dextran-coated charcoal-stripped fetal bovine serum (DCC-FBS) assay medium in place of 10% FBS. MCF-7 cells are removed from flasks using 10× Trypsin EDTA (phenol red free, Gibco BRL) and diluted to 1× in (Ca++/Mg++ free HBSS (phenol red-free). Cells are adjusted to 80,000 cells/ml in assay medium. Approximately 8,000 cells (100 μl) are added to each well in 96 well Cytostar T scintillation plates (Amersham) and incubated at 37° C. in a 5% CO2 humidified incubator for 24 hours to allow cell adherence and equilibration after transfer. Serial dilutions of drugs are prepared in assay medium at 4× the final desired concentration). A 50 μl aliquot of drug dilutions (at 4× the final assay concentration) is transferred to duplicate wells followed by 50 μl assay medium for the agonist mode or 50 μl of 40 pM of E2 for the antagonist mode to a final volume of 200 μl. For each of the agonist plates, a basal level (media) and a maximum stimulated level (with 1 μM E2) is determined. For each of the antagonist plates, a basal level (media) and a E2 (10 pM) alone control is determined. After an additional 48 hours at 37° C. in a 5% CO2 humidified incubator, 20 μl of assay medium containing 0.01 μCi of ^14C-thymidine (52 mCi/mmol, […], Amersham) is added to each well. The plates are incubated overnight in the same incubator and then counted on the Wallac Microbeta counter. […] For the agonist mode, an EC50 and percent of maximum E2 stimulation and concentration of maximum stimulation is calculated.

[4] = molecular target: T2, ERAlpha receptor (PanVera) (Homo sapiens, UniProt P03372); test: ER competition binding assay (3H-Estradiol), ERalpha; details: IC50 converted to Ki by Cheng-Prusoff; 3H-Estradiol competition; A = class at 10 microMolar; read-out: Ki (ERα)
T2 construct: purchased PanVera
T2 sequence (P03372 1-595): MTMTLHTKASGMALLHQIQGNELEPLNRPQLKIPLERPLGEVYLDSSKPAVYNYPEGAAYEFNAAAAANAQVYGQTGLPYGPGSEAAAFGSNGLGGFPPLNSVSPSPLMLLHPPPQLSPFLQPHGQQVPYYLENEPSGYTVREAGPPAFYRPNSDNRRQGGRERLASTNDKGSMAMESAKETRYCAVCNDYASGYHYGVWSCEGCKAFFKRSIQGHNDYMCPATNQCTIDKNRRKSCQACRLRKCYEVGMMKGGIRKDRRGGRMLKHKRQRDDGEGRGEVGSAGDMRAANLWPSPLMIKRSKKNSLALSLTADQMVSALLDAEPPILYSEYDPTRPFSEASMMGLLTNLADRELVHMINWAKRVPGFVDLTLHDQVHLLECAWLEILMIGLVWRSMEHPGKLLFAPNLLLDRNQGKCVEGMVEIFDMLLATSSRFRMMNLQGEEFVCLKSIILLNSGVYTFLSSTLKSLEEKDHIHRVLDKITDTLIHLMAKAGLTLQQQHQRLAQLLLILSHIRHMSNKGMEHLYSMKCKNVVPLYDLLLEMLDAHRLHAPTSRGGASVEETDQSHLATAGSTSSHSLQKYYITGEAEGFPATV
Experimental: as §1

## Oc1cccc(C2CCc3cc(O)ccc3N2Cc2ccc(OCCN3CCCCC3)cc2)c1 (stereo not drawn) [Example 12, 2-(3-Hydroxy-phenyl)-1-[4-(2-piperidin-1-yl-ethoxy)-benzyl]-1,2,3,4-tetrahydro-quinolin-6-ol]
[1]
  pEC50: 6.85
  pIC50: 6.05
  Agonist % Eff: 29%
  % Eff: 31%
[2]
  pKi: 8.23
[3]
  pIC50: 6.41

## COc1ccc2c(c1)CCC(c1ccccc1)N2C(=O)c1ccc(OCCN2CCCCC2)cc1 (stereo not drawn) [Example 2]
[1]
  Agonist % Eff: −5%
  % Eff: 28%
[3]
  IC50 (MCF7): B (B means < 50% inhibition at 1 micromolar)

## Oc1ccc(C2CCc3cc(O)ccc3N2Cc2ccc(OCCN3CCCCC3)cc2)cc1 (stereo not drawn) [Example 7, 2-(4-Hydroxy-phenyl)-1-[4-(2-piperidin-1-yl-ethoxy)-benzyl)-1,2,3,4-tetrahydroquinolin-6-ol]
[1]
  pEC50: 6.66
  Agonist % Eff: 28%
  % Eff: 17%
[4]
  pKi: 9.40
[3]
  pIC50: 6.32

## Oc1ccc2c(c1)CCC(c1ccccc1)N2Cc1ccc(OCCN2CCCCC2)cc1 (stereo not drawn) [Example 8, 2-Phenyl-1-[4-(2-piperidin-1-yl-ethoxy)-benzyl]-1,2,3,4-tetrahydroquinolin-6-ol]
[1]
  pEC50: 7.55
  pIC50: 6.15
  Agonist % Eff: 31%
  % Eff: 63%
[2]
  pKi: 8.39
[4]
  pKi: 8.89
[3]
  pIC50: 6.27

## COc1ccc(C2CCc3cc(OC)ccc3N2C(=O)c2ccc(OCCN3CCCCC3)cc2)cc1 (stereo not drawn) [Example 1, [6-Methoxy-2-(4-methoxyphenyl)-3,4-dihydro-2H-quinolin-1-yl]-[4-4-(2-piperidin-1-yl-ethoxy)phenyl]methanone]
[1]
  pEC50: 7.64
  Agonist % Eff: 18%
  % Eff: 18%
[3]
  IC50 (MCF7): B^† (B means < 50% inhibition at 1 micromolar)

## O=C(c1ccc(OCCN2CCCCC2)cc1)N1c2ccc(O)cc2CCC1c1ccccc1 (stereo not drawn) [Example 4]
[1]
  pEC50: 7.07
  pIC50: 6.18
  Agonist % Eff: 44%
  % Eff: 47%
[4]
  pKi: 7.54

## O=C(c1ccc(OCCN2CCCCC2)cc1)N1c2ccc(O)cc2CCC1c1ccc(O)cc1 (stereo not drawn) [Example 3]
[1]
  pEC50: 6.62
  Agonist % Eff: 29%
  % Eff: 17%
[2]
  pKi: 5.94
[4]
  pKi: 7.06
[3]
  pIC50: 6.00
